Measurements taken from the pKa sets of Baltruschat and Czodrowski (2020).

Settings: acidic group

| pKa | SMILES |
| --- | --- |
| 11 | O=S1(=O)N=C[N-]c2nc[nH]c21 |
| 4.96 | O=C(O)CCC(=O)c1ccc2ccccc2c1 |
| 10.9 | Oc1c(C(Nc2nc3ccccc3s2)c2ccccn2)ccc2cccnc12 (stereo not drawn) |
| 10 | O=C([O-])/C=C\C(=O)NOCc1ccccc1 |
| 8.6 | O=C(NO)c1ccccn1 |
| 11 | N#Cc1ccc(CC(C#N)C#N)cc1 |
| 11.3 | C/C=C/c1ccc2cccnc2c1O |
| 11.6 | [O-]c1ncncc1O |
| 3.45 | N#CC(C#N)=C(C#N)Nc1cccc([N+](=O)[O-])c1 |
| 12.3 | NC(=S)Nc1ccc(Br)cc1 |
| 4.7 | O=C(O)CC(c1ccccc1)c1ccccc1Cl (stereo not drawn) |
| 3.72 | CC(=O)c1ccc(C(=O)O)cc1 |
| 8.2 | Cc1cc(O)cc([N+](C)(C)C)c1 |
| 7.35 | CCOc1cc(C)nc(-n2nc(C)cc2O)n1 |
| 9.85 | Nc1cccc(O)c1 |
| 3.64 | O=C(O)c1cscn1 |
| 5.65 | Cc1c[nH]cc1C(=O)O |
| 7.92 | CN(O)C(=O)c1ccc([N+](=O)[O-])cc1 |
| 4.88 | CC1CCCC(C)C1C(=O)O (stereo not drawn) |
| 5.85 | CC(=O)c1ccc(NN=C(C#N)C#N)cc1 |
| 9.92 | OCc1ccccc1O |
| 9.51 | S=C(Nc1ccc(Cl)c(Cl)c1)c1ccc(Cl)cc1 |

| pKa | SMILES |
| --- | --- |
| 7.75 | O=C1C=C(S(=O)(=O)[O-])c2[nH]ncc2/C1=N/O |
| 3.43 | Cc1c(Cl)cccc1C(=O)O |
| 5.3 | CCCCNC(=O)NS(=O)(=O)c1ccc(C)cc1 |
| 9.5 | c1ccc(CSc2ncn[nH]2)cc1 |
| 13.8 | Cc1ccc(C(=O)[O-])c(O)c1 |
| 14.1 | [O-]c1ccc(-c2ccc(O)cc2)cc1 |
| 10.9 | O=C([O-])c1c(O)ccc2ccccc12 |
| 6.71 | O=S1(=O)N=CNc2ccncc21 |
| 7.73 | COc1nc2ncncc2[nH]1 |
| 3.42 | Cc1ccc(C(=O)O)o1 |
| 3.7 | O=C(O)c1cccc2cc3ccccc3cc12 |
| 5.32 | OC(O)=C1SCc2ccccc21 |
| 5.01 | Oc1ccc[nH+]c1 |
| 11.2 | Nc1cc([O-])ccc1O |
| 8.62 | COc1ccc(O)c(Br)c1 |
| 7.15 | O=[N+]([O-])c1ccc(B(O)O)cc1 |
| 3.79 | O=C(O)c1cc2ccccc2[nH]1 |
| 11 | CN(C)Cc1ccccc1O |
| 3.98 | CNC(=O)/C=C\C(=O)O |
| 10.3 | COC(=O)c1ccccc1O |
| 10.9 | O=C([O-])[C@H](NCC[NH2+][C@@H](C(=O)[O-])c1ccccc1[O-])c1ccccc1O |
| 10.5 | Cc1cccc(O)c1C |

| pKa | SMILES |
| --- | --- |
| 9.2 | CCCCCCCc1c(-c2ccccc2)n[nH]c1O |
| 4 | CC(C)C1CC(CC(=O)O)[NH2+]C1C(=O)[O-] (stereo not drawn) |
| 4.76 | CO[C@H]1C[C@H]1C(=O)O |
| 3.5 | C[C@]12C[C@H](C(=O)O)OC(=O)[C@H]1CC[C@@]1(C)[C@@H]2[C@H]2CCC1(O)C(=O)O2 |
| 5.91 | O=S(=O)(Nc1ncccn1)c1ccccc1 |
| 8 | COC(=O)[C@H](NC(=O)Cc1ccccc1)[C@@H]1SC(C)(C)[C@H]2C(=O)NC(=S)N12 |
| 4.6 | CC(C)=CCC(=O)O |
| 2.4 | C[n+]1cc(S)cc2ccccc21 |
| 2.38 | Nc1nnnn1CC(=O)O |
| 9.61 | [O-]C(O)=C1c2ccccc2-c2ccccc21 |
| 3.4 | [NH3+]C(CC(=O)[O-])C(=O)NC(CC(=O)O)C(=O)O (stereo not drawn) |
| 8.74 | CSc1ncnc2nc[nH]c12 |
| 4.21 | C[N+](C)(O)c1ccccc1 |
| 7.3 | CC(=O)/N=c1\sc(S(N)(=O)=O)nn1C |
| 12.1 | CC(=O)c1cccc(NC(N)=S)c1 |
| 4.12 | O=C(O)[C@H]1C[C@@H]1Cl |
| 4.4 | O=C1OCC(O)=C1O |
| 10.1 | CC(C)(C)N(O)C(=O)c1ccccc1 |
| 7.65 | COc1cc(C(C)=O)ccc1O |
| 7.7 | Clc1ccc2[nH]nnc2c1 |

| SMILES | pKa |
| --- | --- |
| N#CC[N+](=O)[O-] | 4.86 |
| CC(C)[C@@]12C[NH2+][C@@H](C(=O)O)[C@@H]1CC(=O)O2 | 2.45 |
| Ic1nnn[nH]1 | 2.85 |
| NNC(=O)c1cccnc1 | 11.5 |
| Oc1ccccc1Cl | 8.4 |
| CCCCCP(=O)(O)CCCCC | 3.23 |
| [NH3+]C(c1cccc(O)c1O)P(=O)([O-])O (stereo not drawn) | 5.06 |
| Oc1ccccc1I | 8.4 |
| CCc1nnn[nH]1 | 5.59 |
| NS(=O)(=O)c1ccc(P(=O)([O-])O)cc1 | 6.38 |
| O=[Se](O)c1cccc(-c2ccccc2)c1 | 4.87 |

Same assay, conditions: basic group

| pKa | SMILES |
| --- | --- |
| 3.72 | NC(C[NH3+])C[NH3+] |
| 9 | COc1ccccc1/C(=N/CCCN(C)C)c1ccccc1 |
| 10.7 | [O-]c1ncc2ccccc2n1 |
| 4.54 | c1ccc2c(c1)C1CCN2c2ccccc21 |
| 6.71 | CN(c1ccccc1)C1CCCC1 |
| 9.4 | [O-]c1ccncc1Br |
| 9.75 | CC(CO)CN(C)C (stereo not drawn) |
| 7.14 | NCC[NH3+] |
| 4.66 | C/C=C/c1ccc2cccnc2c1O |
| 7.48 | [O-]c1ncncc1O |
| 8.15 | N=C1Cc2ccccc2N1 |
| 10.3 | NCCCCO |

| SMILES | pKa |
| --- | --- |
| C1CCC2NCCCC2C1 (stereo not drawn) | 10.9 |
